According to patent US20230346827A1 (priority 2020, published 2023):

System: rats subjected to sTBI
Experiment: sTBI rats, LMW-DS 1, 5, 15 mg/kg s.c. 30 min post-TBI: HPLC of brain energy metabolites, antioxidants, oxidative/nitrosative stress biomarkers (Example 4)
Type: in vivo, rat
Settings: for ATP/ADP / NAD+/NADH: adimensional ratio
Protocol: Male Wistar rats (n=160) of 300-350 g body weight were used in this study. They were fed with standard laboratory diet and water ad libitum in a controlled environment.
As the accepted anesthetic mixture, animals received 35 mg/kg b.w. ketamine and 0.25 mg/kg body weight midazolam by intramuscular injection. Diffuse sTBI was induced according to the “weight drop” impact acceleration model set up by Marmarou et al. J. Neurosurg. 1994, 80: 291-300. This model causes diffuse axonal injury and it is able to reproduce the physical and mechanical characteristics of the diffuse TBI in humans.
Severe TBI was induced by dropping a 450 g weight from 2 meters height onto the rat head protected by a helmet (metal disk previously fixed on the skull using dental cement) in order to uniformly distribute the mechanical force to the brain. Rats were placed prone on a bed of specific polyurethane foam inserted in a special container; this foam dissipates the major part of the potential energy (deriving from the mechanical forces) and prevents any rebound of the animal after the impact that could produce spinal damages.
After 2 or 7 days from TBI induction, rats were anesthetized again and then immediately sacrificed. These time points are coincident with the worst biochemical derangement (2 days) or, in the case of a mildly injured brain, with a full metabolic recovery (7 days).
The drug treatment consisted in a subcutaneous injection of 0.5 ml of LMW-DS (ILB®, Tikomed, Viken, Sweden, WO 2016/076780) and administered at 3 different concentrations (1, 5 and 15 mg/kg body weight), according to the schematic protocol described below. Sham-operated animals underwent the same procedure of anesthesia but TBI and were used as the control group.
Rats subjected to sTBI and receiving a single administration of LMW-DS after 30 minutes post-TBI, with sacrifice at 2 days post-TBI. Animals were divided in the following subgroups: • 1. 12 animals subjected to sTBI and treated with 1 mg/kg b.w. LMW-DS • 2. 12 animals subjected to sTBI and treated with 5 mg/kg b.w. LMW-DS • 3. 12 animals subjected to sTBI and treated with 15 mg/kg b.w. LMW-DS
Rats subjected to sTBI and receiving a single administration of LMW-DS after 30 minutes post-TBI, with sacrifice at 7 days post-TBI. Animals were divided in the following subgroups: • 1. 12 animals subjected to sTBI and treated with 1 mg/kg b.w. LMW-DS • 2. 12 animals subjected to sTBI and treated with 5 mg/kg b.w. LMW-DS • 3. 12 animals subjected to sTBI and treated with 15 mg/kg b.w. LMW-DS
Rats (n = 12) subjected to sTBI and receiving repeated administrations of the maximal dose of LMW-DS (15 mg/kg b.w.) after 30 minutes, 3 days and 5 days post-TBI, with sacrifice at 7 days post-TBI. Four additional rats were used for the histo-morphological studies. Total rats in this group: n=16
To minimize metabolite loss, an in vivo craniectomy was performed in all animals during anesthesia. The rat skull was carefully removed, the brain was exposed, sharply cut along the sagittal fissure and the two hemispheres were separated. The hemispheres dedicated to biochemical analyses were freeze-clamped by aluminum tongues pre-cooled in liquid nitrogen and then immersed in liquid nitrogen. The freeze-clamping procedure was introduced to accelerate freezing of the tissue, thus minimizing potential metabolite loss.
Tissue homogenization for metabolite analyses was effected as described below. After the wet weight (w.w.) determination, the frozen hemispheres were placed into 7 ml of ice-cold, nitrogen-saturated, precipitating solution (1:10 w/v) composed by CH3CN + 10 mM KH2PO4, pH 7.40, (3:1; v:v), and the homogenization was performed using an Ultra-Turrax homogenizer set at 24,000 rpm/min (Janke & Kunkel, Staufen, Germany). […]

[1] = 15 mg/kg repeated, 7 d post-sTBI

Substance sodium salt of dextran sulfate [LMW-DS] has a Malonyl-CoA (5 mg/kg, 7 d post-sTBI) of 6.02 ± 1.09 nmol/g w.w, an NADH (5 mg/kg, 7 d post-sTBI) of 8.83 ± 1.26 nmol/g w.w and an NADPH (5 mg/kg, 7 d post-sTBI) of 12.30 ± 2.86 nmol/g w.w. The “NADP^+” value (5 mg/kg, 7 d post-sTBI) was 24.45 ± 8.97 nmol/g w.w, the “NAD^+” value (5 mg/kg, 7 d post-sTBI) was 293.36 ± 41.55 nmol/g w.w and the NO2 (5 mg/kg, 7 d post-sTBI) was 59.61 ± 12.91 nmol/g w.w. It also gave an NO3 (5 mg/kg, 7 d post-sTBI) of 234.45 ± 40.05 nmol/g w.w, a UDP (5 mg/kg, 7 d post-sTBI) of 44.19 ± 6.22 nmol/g w.w and a UDP-Gal (5 mg/kg, 7 d post-sTBI) of 132.66 ± 9.12 nmol/g w.w. For the same substance, the UDP-GalNac (5 mg/kg, 7 d post-sTBI) was 17.37 ± 4.98 nmol/g w.w, the UDP-Glc (5 mg/kg, 7 d post-sTBI) was 58.10 ± 11.81 nmol/g w.w and the UDP-GlcNac (5 mg/kg, 7 d post-sTBI) was 85.14 ± 29.45 nmol/g w.w. For the same substance, the UMP (5 mg/kg, 7 d post-sTBI) was 167.18 ± 32.39 nmol/g w.w, the URACIL (5 mg/kg, 7 d post-sTBI) was 18.34 ± 3.77 nmol/g w.w and the “URIC ACID” value (5 mg/kg, 7 d post-sTBI) was 17.26 ± 4.11 nmol/g w.w. For the same substance, the URIDINE (5 mg/kg, 7 d post-sTBI) was 134.60 ± 31.89 nmol/g w.w, the UTP (5 mg/kg, 7 d post-sTBI) was 175.02 ± 30.65 nmol/g w.w and the XANTHINE (5 mg/kg, 7 d post-sTBI) was 14.33 ± 4.05 nmol/g w.w. The β-PSEUDOURIDINE (5 mg/kg, 7 d post-sTBI) was 17.51 ± 3.25 nmol/g w.w, the ATP/ADP (5 mg/kg, 7 d post-sTBI) was 6.28 ± 0.80 and the “NAD+/NADH” value (5 mg/kg, 7 d post-sTBI) was 33.90 ± 7.19. For the same substance, the ADENOSINE [1] was 40.84 ± 30.25 nmol/g w.w, the ADP [1] was 260.32 ± 34.67 nmol/g w.w and the ADP-Ribose [1] was 13.23 ± 3.32 nmol/g w.w. The AMP [1] was 43.12 ± 3.39 nmol/g w.w, the “ASCORBIC ACID” value [1] was 2617.09 ± 315.18 nmol/g w.w and the ATP [1] was 1971.17 ± 158.57 nmol/g w.w. It also gave an Acetyl-CoA [1] of 37.91 ± 6.46 nmol/g w.w, a CDP choline [1] of 11.72 ± 3.76 nmol/g w.w and a CMP [1] of 31.21 ± 13.28 nmol/g w.w. The CREATININE [1] was 9.07 ± 1.60 nmol/g w.w, the CTP [1] was 92.67 ± 16.27 nmol/g w.w and the CYTIDINE [1] was 72.85 ± 25.63 nmol/g w.w. The CYTOSINE [1] was 8.76 ± 1.88 nmol/g w.w, the CoA-SH [1] was 45.76 ± 5.87 nmol/g w.w and the GDP [1] was 109.06 ± 12.46 nmol/g w.w. For the same substance, the “GDP Glucose” value [1] was 106.42 ± 12.45 nmol/g w.w, the GMP [1] was 61.86 ± 29.28 nmol/g w.w and the GSH [1] was 2342.03 ± 308.72 nmol/g w.w. It also gave a GTP [1] of 466.06 ± 42.38 nmol/g w.w, a GUANINE [1] of 3.32 ± 1.41 nmol/g w.w and a GUANOSINE [1] of 19.66 ± 4.10 nmol/g w.w. It also gave an HYPOXANTHINE [1] of 4.10 ± 1.19 nmol/g w.w, an IMP [1] of 141.84 ± 36.32 nmol/g w.w and an INOSINE [1] of 139.26 ± 15.62 nmol/g w.w. For the same substance, the MDA [1] was 4.09 ± 0.67 nmol/g w.w, the Malonyl-CoA [1] was 12.56 ± 2.27 nmol/g w.w and the NADH [1] was 11.05 ± 1.52 nmol/g w.w. The NADPH [1] was 11.21 ± 2.60 nmol/g w.w, the “NADP^+” value [1] was 16.56 ± 6.08 nmol/g w.w and the “NAD^+” value [1] was 401.73 ± 56.89 nmol/g w.w. It also gave an NO2 [1] of 130.69 ± 28.31 nmol/g w.w, an NO3 [1] of 271.69 ± 46.41 nmol/g w.w and a UDP [1] of 37.12 ± 5.22 nmol/g w.w. The UDP-Gal [1] was 135.15 ± 9.29 nmol/g w.w, the UDP-GalNac [1] was 16.50 ± 4.73 nmol/g w.w and the UDP-Glc [1] was 61.37 ± 12.47 nmol/g w.w. It also gave a UDP-GlcNac [1] of 86.42 ± 29.89 nmol/g w.w, a UMP [1] of 107.66 ± 20.86 nmol/g w.w and a URACIL [1] of 24.13 ± 4.96 nmol/g w.w. For the same substance, the “URIC ACID” value [1] was 7.80 ± 1.86 nmol/g w.w, the URIDINE [1] was 97.21 ± 23.03 nmol/g w.w and the UTP [1] was 133.72 ± 23.42 nmol/g w.w. The XANTHINE [1] was 11.24 ± 3.18 nmol/g w.w, the β-PSEUDOURIDINE [1] was 16.72 ± 3.10 nmol/g w.w and the ATP/ADP [1] was 7.67 ± 0.97. For the same substance, the “NAD+/NADH” value [1] was 37.47 ± 9.46, the ADENOSINE (15 mg/kg, 2 d post-sTBI) was 53.25 ± 12.75 nmol/g w.w and the ADP (15 mg/kg, 2 d post-sTBI) was 346.37 ± 29.79 nmol/g w.w. The ADP-Ribose (15 mg/kg, 2 d post-sTBI) was 23.06 ± 4.63 nmol/g w.w, the AMP (15 mg/kg, 2 d post-sTBI) was 66.26 ± 10.74 nmol/g w.w and the “ASCORBIC ACID” value (15 mg/kg, 2 d post-sTBI) was 2783.04 ± 160.17 nmol/g w.w. The ATP (15 mg/kg, 2 d post-sTBI) was 1556.54 ± 91.20 nmol/g w.w, the Acetyl-CoA (15 mg/kg, 2 d post-sTBI) was 32.38 ± 3.77 nmol/g w.w and the CDP choline (15 mg/kg, 2 d post-sTBI) was 7.07 ± 1.05 nmol/g w.w. It also gave a CMP (15 mg/kg, 2 d post-sTBI) of 25.61 ± 5.23 nmol/g w.w, a CREATININE (15 mg/kg, 2 d post-sTBI) of 11.77 ± 2.19 nmol/g w.w and a CTP (15 mg/kg, 2 d post-sTBI) of 37.53 ± 7.59 nmol/g w.w. For the same substance, the CYTIDINE (15 mg/kg, 2 d post-sTBI) was 11.46 ± 2.07 nmol/g w.w, the CYTOSINE (15 mg/kg, 2 d post-sTBI) was 13.57 ± 1.66 nmol/g w.w and the CoA-SH (15 mg/kg, 2 d post-sTBI) was 9.35 ± 1.03 nmol/g w.w.
